Measurements taken from patent publication US7932262B2 (Novartis AG, priority 2006, dated 2011).

Tests used:
PDK1 kinase = target: T1, PDK1 kinase (Homo sapiens, UniProt O15530); assay: PDK1 Kinase Alpha Screen Assay; format: biochemical; conditions: read-out: PDK1 IC50
T1 sequence (O15530 1-556): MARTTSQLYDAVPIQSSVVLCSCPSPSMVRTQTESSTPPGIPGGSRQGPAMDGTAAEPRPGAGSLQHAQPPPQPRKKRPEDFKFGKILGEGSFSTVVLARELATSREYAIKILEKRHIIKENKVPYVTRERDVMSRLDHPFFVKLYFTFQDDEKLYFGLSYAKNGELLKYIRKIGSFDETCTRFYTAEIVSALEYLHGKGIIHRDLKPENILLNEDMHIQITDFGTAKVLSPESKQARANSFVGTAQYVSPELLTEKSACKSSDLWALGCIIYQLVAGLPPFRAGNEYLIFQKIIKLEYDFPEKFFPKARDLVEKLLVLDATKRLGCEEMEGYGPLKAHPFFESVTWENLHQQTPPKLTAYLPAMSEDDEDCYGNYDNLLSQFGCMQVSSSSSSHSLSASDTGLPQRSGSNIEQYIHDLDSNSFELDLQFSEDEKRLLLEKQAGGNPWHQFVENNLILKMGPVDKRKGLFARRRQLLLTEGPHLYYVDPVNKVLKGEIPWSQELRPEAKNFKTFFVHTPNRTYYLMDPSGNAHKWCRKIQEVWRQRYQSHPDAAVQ
Summary of the method: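 Biotinylated PDK1-4 peptide (50 nM) phosphorylated by PDK1 with 10 uM ATP in pH 7.5 Tris/MgCl2/DTT buffer, 2.5% DMSO, for 3-18 hours. EDTA stop, then AlphaScreen detection with phospho-(Ser/Thr) PKA substrate antibody and protein A/streptavidin beads after overnight room-temperature development.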

A2780 cells = assay: Cell Proliferation Assay (Cell Titer Glo), A2780; format: cell-based; conditions: Homo sapiens, 72 h; A2780 cells, 3 days incubation; read-out: CPEC50 A2780
Procedure: IV. Cell Proliferation Assay Protocol:
A2780, PC-3, or PC3MM cells were seeded at 1000 cells/well in 100 μL/well (10.000 cells/mL) growth media in 96-well plates. Cells were allowed to adhere to the bottom of plates for 3-5 hours in a 37° C. 5% CO2 incubator. Compounds were dissolved in DMSO and then transferred to the cell plates. The cells were incubated with the compounds for 3 days in a 37° C. 5% CO2 incubator. The growth medium containing the compounds was then removed from the cells and fresh medium was added, followed by 100 μL of Cell Titer Glo assay reagent (Promega). This mixture was shaken for 1 minute and then incubated without shaking for 10 minutes. Activity determinations for the compounds were made by detection on a Trilux Instrument.

Structure (SMILES)	IC50 (PDK1 kinase) [µM]	EC50 (A2780 cells) [µM]
NC(=O)c1ccc(-c2ccc3cnc(Nc4ccc(S(N)(=O)=O)cc4)nc3c2OC2CCNCC2)cc1 [Compound 19, 4-[8-(Piperidin-4-yl-oxy)-2-(4-sulfamoyl-phenylamino)-quinazolin-7-yl]-benzamide]	< 5	5 to 10
NS(=O)(=O)c1ccc(Nc2ncc3ccc(-c4ccncc4)c(OC4CCNCC4)c3n2)cc1 [Compound 20, 4-[8-(Piperidin-4-yl-oxy)-7-pyridin-4-yl-quinazolin-2-ylamino]-benzenesulfonamide]	< 5	< 5
NS(=O)(=O)c1ccc(Nc2ncc3cccc(OC4CN5CCC4CC5)c3n2)cc1 (stereo not shown) [Compound 33, 4-[8-(1-Aza-bicyclo[2.2.2]oct-3-yloxy)-quinazolin-2-ylamino]-benzenesulfonamide]	< 5	< 5
CN1CCCC(Oc2cccc3cnc(Nc4ccc(S(N)(=O)=O)cc4)nc23)C1 (stereo not shown) [Compound 39, 4-[8-(1-Methyl-piperidin-3-yloxy)-quinazolin-2-ylamino]-benzenesulfonamide]	< 5	< 5
CC(C)N1CC(Oc2cccc3cnc(Nc4ccc(S(N)(=O)=O)cc4)nc23)C1 [Compound 47, 4-[8-(1-Isopropyl-azetidin-3-yloxy)-quinazolin-2-ylamino]-benzenesulfonamide]	< 5	< 5
CC(C)CN1CC(Oc2cccc3cnc(Nc4ccc(S(N)(=O)=O)cc4)nc23)C1 [Compound 49, 4-[8-(1-Isobutyl-azetidin-3-yloxy)-quinazolin-2-ylamino]-benzenesulfonamide]	< 5	< 5
NS(=O)(=O)c1ccc(Nc2ncc3cccc(-c4ccc(-c5ccn[nH]5)cc4)c3n2)cc1 [Compound 89, 4-{8-[4-(2H-Pyrazol-3-yl)-phenyl]-quinazolin-2-ylamino}-benzenesulfonamide]	< 5	< 5
NC(=O)c1cccc(-c2cccc3cnc(Nc4ccc(S(N)(=O)=O)cc4)nc23)c1 [Compound 90, 3-[2-(4-Sulfamoyl-phenylamino)-quinazolin-8-yl]-benzamide]	< 5	< 5
CS(=O)(=O)c1cccc(-c2cccc3cnc(Nc4ccc(S(N)(=O)=O)cc4)nc23)c1 [Compound 91, 4-[8-(3-Methanesulfonyl-phenyl)-quinazolin-2-ylamino]-benzenesulfonamide]	< 5	< 5
NS(=O)(=O)c1ccc(Nc2ncc3cccc(-c4ccc5c(c4)OCO5)c3n2)cc1 [Compound 95, 4-(8-Benzo[1,3]dioxol-5-yl-quinazolin-2-ylamino)-benzenesulfonamide]	< 5	< 5
NC(=O)c1ccc(-c2cccc3cnc(Nc4ccc(S(N)(=O)=O)cc4)nc23)cc1 [Compound 96, 4-[2-(4-Sulfamoyl-phenylamino)-quinazolin-8-yl]-benzamide]	< 5	< 5
NS(=O)(=O)c1ccc(Nc2ncc3cccc(-c4ccncc4)c3n2)cc1 [Compound 99, 4-(8-Pyridin-4-yl-quinazolin-2-ylamino)-benzenesulfonamide]	< 5	5 to 10
NS(=O)(=O)c1ccc(Nc2ncc3cccc(-c4cnoc4)c3n2)cc1 [Compound 103, 4-(8-Isoxazol-4-yl-quinazolin-2-ylamino)-benzenesulfonamide]	< 5	< 5
NS(=O)(=O)c1ccc(Nc2ncc3cccc(-c4cn[nH]c4)c3n2)cc1 [Compound 104, 4-[8-(1H-Pyrazol-4-yl)-quinazolin-2-ylamino]-benzenesulfonamide]	< 5	< 5

Other lines, results leading:

IC50 (PDK1 kinase) [µM]	EC50 (A2780 cells) [µM]	Structure (SMILES)
< 5	< 5	NS(=O)(=O)c1ccc(Nc2ncc3ccc(Br)c(OC4CCNCC4)c3n2)cc1 [Compound 17, 4-[7-Bromo-8-(piper-idin-4-yloxy)-quin-azolin-2-ylamino]-benzenesulfonamide]
< 5	5 to 10	Nc1ncc(-c2ccc3cnc(Nc4ccc(S(N)(=O)=O)cc4)nc3c2OC2CCNCC2)cn1 [Compound 22, 4-[7-(2-Amino-pyrimidin-5-yl)-8-(piperidin-4-yloxy)-quinazolin-2-ylamino]-benzenesulfonamide]
< 5	< 5	N#Cc1ccc2cnc(Nc3ccc(S(N)(=O)=O)cc3)nc2c1OC1CCNCC1 [Compound 29, 4-[7-Cyano-8-(piperidin-4-yloxy)-quinazolin-2-ylamino]-benzenesulfonamide]
< 5	< 5	NC(=O)c1ccc(Nc2ncc3cccc(OC4CCNCC4)c3n2)cc1 [Compound 30, 4-[8-(Piperidin-4-yloxy)-quinazolin-2-ylamino]-benzamide]
< 5	< 5	NS(=O)(=O)c1ccc(Nc2ncc3cccc(O[C@H]4CCNC4)c3n2)cc1 [Compound 32, 4-[8-((S)-Pyrrolidin-3-yloxy)-quinazolin-2-ylamino]-benzenesulfonamide]
< 5	< 5	CN1CC[C@H](Oc2cccc3cnc(Nc4ccc(S(N)(=O)=O)cc4)nc23)C1 [Compound 34, 4-[8-((S)-1-Methyl-pyrrolidin-3-yloxy)-quinazolin-2-ylamino]-benzenesulfonamide]
< 5	< 5	CN1CC[C@@H](Oc2cccc3cnc(Nc4ccc(S(N)(=O)=O)cc4)nc23)C1 [Compound 38, 4-[8-((R)-1-Methyl-pyrrolidin-3-yloxy)-quinazolin-2-ylamino]-benzenesulfonamide]
< 5	5 to 10	NS(=O)(=O)c1ccc(Nc2ncc3cccc(OC4CNC4)c3n2)cc1 [Compound 48, 4-[8-(Azetidin-3-yloxy)-quinazolin-2-ylamino]-benzenesulfonamide]
< 5	< 5	CCN1CC(Oc2cccc3cnc(Nc4ccc(S(N)(=O)=O)cc4)nc23)C1 [Compound 50, 4-[8-(1-Ethyl-azetidin-3-yloxy)-quinazolin-2-ylamino]-benzenesulfonamide]
< 5	5 to 10	NS(=O)(=O)c1ccc(Nc2ncc3ccc(-c4ccc5c(c4)CCNC5=O)c(OC4CCNCC4)c3n2)cc1 [Compound 64, 4-[7-(1-Oxo-1,2,3,4-tetrahydro-isoquinolin-6-yl)-8-(piperidin-4-yloxy)-quinazolin-2-ylamino]-benzenesulfonamide]
< 5	5 to 10	CC(=O)c1ccc(-c2cccc3cnc(Nc4ccc(S(N)(=O)=O)cc4)nc23)cc1 [Compound 88, 4-[8-(4-Acetyl-phenyl)-quinazolin-2-ylamino]-benzenesulfonamide]
< 5	< 5	CS(=O)(=O)Nc1cccc(-c2cccc3cnc(Nc4ccc(S(N)(=O)=O)cc4)nc23)c1 [Compound 92, 4-[8-(3-Methanesulfonylamino-phenyl)-quinazolin-2-ylamino]-benzenesulfonamide]
< 5	< 5	CC(=O)Nc1cccc(-c2cccc3cnc(Nc4ccc(S(N)(=O)=O)cc4)nc23)c1 [Compound 93, N-{3-[2-(4-Sulfamoyl-phenylamino)-quinazolin-8-yl]-phenyl}-acetamide]
< 5	< 5	NS(=O)(=O)c1ccc(Nc2ncc3cccc(-c4ccnc(F)c4)c3n2)cc1 [Compound 97, 4-[8-(2-Fluoro-pyridin-4-yl)-quinazolin-2-ylamino]-benzenesulfonamide]
< 5	5 to 10	NS(=O)(=O)c1ccc(Nc2ncc3cccc(-c4cccnc4)c3n2)cc1 [Compound 98, 4-(8-Pyridin-3-yl-quinazolin-2-ylamino)-benzenesulfonamide]
< 5	< 5	COCCNc1cc(-c2cccc3cnc(Nc4ccc(S(N)(=O)=O)cc4)nc23)ccn1 [Compound 100, 4-{8-[2-(2-Methoxy-ethylamino)-pyridin-4-yl]-quinazolin-2-ylamino}-benzenesulfonamide]
< 5	< 5	CC(=O)NCCNc1cc(-c2cccc3cnc(Nc4ccc(S(N)(=O)=O)cc4)nc23)ccn1 [Compound 101, N-(2-{4-[2-(4-Sulfamoyl-phenylamino)-quinazolin-8-yl]-pyridin-2-ylamino}-ethyl)-acetamide]
< 5	< 5	NS(=O)(=O)c1ccc(Nc2ncc3cccc(-c4ccnc(NCCN5CCCC5)c4)c3n2)cc1 [Compound 102, 4-{8-[2-(2-Pyrrolidin-1-yl-ethylamino)-pyridin-4-yl]-quinazolin-2-ylamino}-benzenesulfonamide]
